Measurements published in PubChem BioAssay AID2060888 (Molecular Pharmacology Branch, DTP, NCI, 2025).

Tested on: 695427-040-R-J1-PDC complex spheroid viability
Assay: Anticancer human tumor 695427-040-R-J1-PDC patient-derived colon adenocarcinoma cell line growth inhibition [RAS]
Details: for IC50: curve of first compound; for viability, T/C: stronger effect = lower value
Outline: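 Tumour cells grown as complex spheroids with HUVEC endothelial cells and mesenchymal stem cells, treated with RAS pathway inhibitor combinations. Each agent spans half-log steps from near clinical Cmax, or 10 microM where Cmax is unknown.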
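Note: viability read after seven days of drug exposure.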
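Throughout, for viability, T/C: 100% = DMSO vehicle control viability.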

**Q.** How did the IC50 (second compound 0.00316 µM) turn out when `CC1(C)CCC(Nc2ncc(C(F)(F)F)c(-c3c[nH]c4c(P(C)(C)=O)c(C#N)ccc34)n2)CN1` (configuration not stated) + C=CC(=O)N1CCN(c2nc(OCC3CCCN3C)nc3c(F)c(-c4nc(N)cc(C)c4C(F)(F)F)c(Cl)cc23)C(C)C1 was run?
**A.** The IC50 was over 300 nM.

**Q.** And the IC50 (second compound 0.01 µM)?
**A.** Its IC50 is over 300 nM.

**Q.** And the IC50 (second compound 0.0316 µM)?
**A.** The IC50 was over 300 nM.

**Q.** What about the IC50 (second compound 0.1 µM) of the same compound?
**A.** Its IC50 is over 300 nM.

**Q.** And the IC50 (second compound 0.316 µM)?
**A.** Its IC50 is over 300 nM.

**Q.** And the IC50 (second compound 1 µM)?
**A.** Its IC50 is over 300 nM.

**Q.** And the viability, T/C (second compound 0.00316 µM, first compound 0.000949 µM)?
**A.** Its viability, T/C is 116%.

**Q.** And the viability, T/C (second compound 0.00316 µM, first compound 0.003 µM)?
**A.** Its viability, T/C is 107%.

**Q.** And the viability, T/C (second compound 0.00316 µM, first compound 0.00949 µM)?
**A.** Its viability, T/C is 90.6%.

**Q.** And the viability, T/C (second compound 0.00316 µM, first compound 0.03 µM)?
**A.** The viability, T/C was 86.5%.

**Q.** What about the viability, T/C (second compound 0.00316 µM, first compound 0.0949 µM) of the same compound?
**A.** The viability, T/C was 84.6%.

**Q.** And the viability, T/C (second compound 0.00316 µM, first compound 0.3 µM)?
**A.** The viability, T/C was 79.2%.

**Q.** What about the viability, T/C (second compound 0.01 µM, first compound 0.000949 µM) of the same compound?
**A.** The viability, T/C was 95.8%.

**Q.** And the viability, T/C (second compound 0.01 µM, first compound 0.003 µM)?
**A.** The viability, T/C was 93.3%.

**Q.** And the viability, T/C (second compound 0.01 µM, first compound 0.00949 µM)?
**A.** Its viability, T/C is 88.4%.

**Q.** And the viability, T/C (second compound 0.01 µM, first compound 0.03 µM)?
**A.** Its viability, T/C is 78.8%.

**Q.** What about the viability, T/C (second compound 0.01 µM, first compound 0.0949 µM) of the same compound?
**A.** Its viability, T/C is 82.9%.

**Q.** What about the viability, T/C (second compound 0.01 µM, first compound 0.3 µM) of the same compound?
**A.** The viability, T/C was 84.9%.

**Q.** What about the viability, T/C (second compound 0.0316 µM, first compound 0.000949 µM) of the same compound?
**A.** Its viability, T/C is 108%.

**Q.** What about the viability, T/C (second compound 0.0316 µM, first compound 0.003 µM) of the same compound?
**A.** The viability, T/C was 89.9%.

**Q.** And the viability, T/C (second compound 0.0316 µM, first compound 0.00949 µM)?
**A.** Its viability, T/C is 96.2%.

**Q.** What about the viability, T/C (second compound 0.0316 µM, first compound 0.03 µM) of the same compound?
**A.** The viability, T/C was 75.7%.

**Q.** What about the viability, T/C (second compound 0.0316 µM, first compound 0.0949 µM) of the same compound?
**A.** The viability, T/C was 86.9%.

**Q.** What about the viability, T/C (second compound 0.0316 µM, first compound 0.3 µM) of the same compound?
**A.** Its viability, T/C is 77.4%.

**Q.** And the viability, T/C (second compound 0.1 µM, first compound 0.000949 µM)?
**A.** The viability, T/C was 89.5%.

**Q.** And the viability, T/C (second compound 0.1 µM, first compound 0.003 µM)?
**A.** The viability, T/C was 95.4%.

**Q.** And the viability, T/C (second compound 0.1 µM, first compound 0.00949 µM)?
**A.** Its viability, T/C is 101%.

**Q.** And the viability, T/C (second compound 0.1 µM, first compound 0.03 µM)?
**A.** Its viability, T/C is 84.7%.

**Q.** What about the viability, T/C (second compound 0.1 µM, first compound 0.0949 µM) of the same compound?
**A.** The viability, T/C was 88%.

**Q.** And the viability, T/C (second compound 0.1 µM, first compound 0.3 µM)?
**A.** The viability, T/C was 78.4%.

**Q.** What about the viability, T/C (second compound 0.316 µM, first compound 0.000949 µM) of the same compound?
**A.** Its viability, T/C is 99%.

**Q.** And the viability, T/C (second compound 0.316 µM, first compound 0.003 µM)?
**A.** The viability, T/C was 94%.

**Q.** And the viability, T/C (second compound 0.316 µM, first compound 0.00949 µM)?
**A.** Its viability, T/C is 96.3%.

**Q.** And the viability, T/C (second compound 0.316 µM, first compound 0.03 µM)?
**A.** Its viability, T/C is 83.8%.

**Q.** What about the viability, T/C (second compound 0.316 µM, first compound 0.0949 µM) of the same compound?
**A.** The viability, T/C was 83.9%.

**Q.** And the viability, T/C (second compound 0.316 µM, first compound 0.3 µM)?
**A.** Its viability, T/C is 81.1%.

**Q.** What about the viability, T/C (second compound 1 µM, first compound 0.000949 µM) of the same compound?
**A.** Its viability, T/C is 90.2%.

**Q.** What about the viability, T/C (second compound 1 µM, first compound 0.003 µM) of the same compound?
**A.** Its viability, T/C is 87.3%.

**Q.** And the viability, T/C (second compound 1 µM, first compound 0.00949 µM)?
**A.** The viability, T/C was 96.3%.

**Q.** And the viability, T/C (second compound 1 µM, first compound 0.03 µM)?
**A.** Its viability, T/C is 78.6%.

**Q.** And the viability, T/C (second compound 1 µM, first compound 0.0949 µM)?
**A.** The viability, T/C was 88.9%.

**Q.** And the viability, T/C (second compound 1 µM, first compound 0.3 µM)?
**A.** The viability, T/C was 79.2%.
